Measurements taken from publication PMC5909342, “Increasing the bioactive space of peptide macrocycles by thioamide substitution” (Chemical Science, 2018).
Like-named read-outs stand apart in the source and are kept apart here.

Experiments:
[1] = tested on: αvβ5 expressing MDA-MB-231 breast cancer cells; test: Competitive cell-adhesion inhibition assay to vitronectin, MDA-MB-231; format: cell-based, human; conditions: n = 5 ± SEM, read-out: In cellulo IC50 MDA-MB-231
Protocol: To validate our in vitro data and determine the efficacy of the peptides against the pro-angiogenic integrins in a complex cellular milieu, we subjected the peptides to a competitive cell-adhesion assay (Table 1) utilizing MDA-MB-231 human breast cancer cells expressing αvβ5 integrins, and U-87 MG human glioblastoma cells expressing αvβ3, αvβ5 and α5β1 integrins.[27] […] On the other hand, we observed a remarkable correlation between the in vitro affinity of the thioamidated peptides against the purified integrins and their efficacy in cellulo (αvβ5 with MDA-MB-231, and αvβ3 and αvβ5 with U-87 MG). […]
(§1) Cell adhesion inhibition assay […]
(§2) incubated with 0.5% crystal violet for 15 min. Cells were then washed thoroughly with PBS buffer to remove excess of crystal violet. Finally dye was eluted out and dissolved using DMSO and quantification was done at 570 nm. […]
(§3) was dispensed and 5% FBS containing media was added. […]

[2] = target: T1, α5β1 integrin (Homo sapiens, UniProt P05556+P08648); test: Competitive solid-phase integrin binding assay (ELISA), fibronectin-α5β1; conditions: purified integrin, n = 5 ± SEM, read-out: In vitro IC50 α5β1
T1 construct: purchased Millipore
Protocol: (§4) The initial structure was obtained by following a simulated annealing protocol. […] For the structure of 7-11 (including 9a-9d) explicit solvent box of H2O was used with periodic boundary conditions. A 2 ns restrained molecular dynamics run was then performed. The average conformation over the dynamics run was considered to be the final structure. Competitive solid-phase integrin binding assay The activity of peptide as integrin antagonist was assessed using solid phase integrin binding assay. Following buffers were prepared freshly. […] 96-well plate reader at 492 nm. […] Binding was visualized using TMB substrate. […] S7

[3] = target: T2, αvβ5 integrin (Homo sapiens, UniProt P06756+P18084); test: Competitive solid-phase integrin binding assay (ELISA), vitronectin-αvβ5; conditions: purified integrin, n = 5 ± SEM, read-out: In vitro IC50 αvβ5
T2 construct: purchased Millipore
Protocol: as §4, with “Post-blocking and washing peptides were mixed with biotinylated vitronectin and this mixure” for “Binding”, “then incubated with coated plates for 2h at room temperature.” for “visualized using TMB substrate.”, “After washing S6” for “S7”

[4] = target: T3, αvβ3 integrin (Homo sapiens, UniProt P05106+P06756); test: Competitive solid-phase integrin binding assay (ELISA), vitronectin-αvβ3
T3 construct: purchased Millipore
Protocol: as §4, with “Post-blocking and washing peptides were mixed with biotinylated vitronectin and this mixure” for “Binding”, “then incubated with coated plates for 2h at room temperature.” for “visualized using TMB substrate.”, “After washing S6” for “S7”

[5] = tested on: αvβ3, αvβ5 and α5β1 expressing U-87 MG glioblastoma cells; test: Competitive cell-adhesion inhibition assay to vitronectin, U-87 MG; format: cell-based, human; conditions: n = 5 ± SEM, read-out: In cellulo IC50 U-87 MG
Protocol: To validate our in vitro data and determine the efficacy of the peptides against the pro-angiogenic integrins in a complex cellular milieu, we subjected the peptides to a competitive cell-adhesion assay (Table 1) utilizing MDA-MB-231 human breast cancer cells expressing αvβ5 integrins, and U-87 MG human glioblastoma cells expressing αvβ3, αvβ5 and α5β1 integrins.[27] […]
as §1, §2, §3

[6] = target: T4, αIIbβ3 integrin (Homo sapiens, UniProt P05106+P08514); test: Competitive solid-phase integrin binding assay (ELISA), fibrinogen-αIIbβ3; conditions: purified integrin, n = 5 ± SEM, read-out: In vitro IC50 αIIbβ3
T4 construct: purchased Millipore
Protocol: The inhibitory potency of the peptides to block the association between the extracellular matrix and the integrins overexpressed on cell-surfaces was determined using an in vitro competitive solid phase binding assay.[25] We assessed the affinity of these peptides against the pro-angiogenic αvβ3, αvβ5 and α5β1 integrins, and their selectivity against their αIIbβ3 integrin, which plays an important role in platelet aggregation (Table 1).[26]
integrin was incubated for 1h at room temperature. After washing 1:250 diluted CD41b
antibody was incubated for 1h at room temperature. Anti-mouse IgG-peroxidase antibody
was used as secondary antibody. Binding was visualized using TMB substrate. […]

[7] = Ex vivo serum stability assay; conditions: human serum ex vivo
[8] = competitive ELISA, purified integrin, n = 5 ± SEM, read-out: In vitro IC50 αvβ3
[9] = from experimental IC50, read-out: pIC50 against αvβ3, Table S22 (converted)

Structure (SMILES) | IC50 [1] [µM] | IC50 [2] [µM] | IC50 [3] [µM] | IC50 [4, 8] [µM] | IC50 [4, 9] [µM] | IC50 [5] [µM] | IC50 [6] [µM] | Fold difference in αvβ3 affinity ([4]; 9b versus 7 (differ only in chirality of Phe)) | Fold enhancement of affinity and efficacy in comparison to 9 ([4]; 9b versus 9, pro-angiogenic integrins) | Fraction of peptide intact at 72 h [7]
CC(C)[C@@H]1NC(=O)[C@@H](Cc2ccccc2)NC(=O)[C@H](CC(=O)O)NC(=O)CNC(=S)[C@H](CCCNC(=N)N)NC1=O [Compound 9] | > 100 | 0.053 ± 0.042 | > 10 | > 100 | > 100 | > 100 | > 10 |  |  | 
CC(C)[C@H]1NC(=O)[C@H](Cc2ccccc2)NC(=O)[C@H](CC(=O)O)NC(=S)CNC(=O)[C@H](CCCNC(=N)N)NC1=O [Compound 9d] | > 100 | 0.104 ± 0.095 | > 10 | 0.584 ± 0.504 |  | > 100 | > 100 |  |  | 
CC(C)[C@@H]1NC(=O)[C@@H](Cc2ccccc2)NC(=O)[C@H](CC(=O)O)NC(=S)CNC(=O)[C@H](CCCNC(=N)N)NC1=O [Compound 10] | > 100 | > 100 | > 100 | 0.252 ± 0.2 |  | > 100 | > 100 |  |  | 
CC(C)[C@@H]1NC(=S)[C@@H](Cc2ccccc2)NC(=O)[C@H](CC(=O)O)NC(=O)CNC(=O)[C@H](CCCNC(=N)N)NC1=O [Compound 7] | 0.004 ± 0.002 | 0.0013 ± 0.0006 | 0.0007 ± 0.0002 | 0.372 ± 0.052 |  | 0.326 ± 0.097 | > 10 |  |  | 
CC(C)[C@@H]1NC(=O)[C@H](Cc2ccccc2)NC(=O)[C@H](CC(=O)O)NC(=O)CNC(=O)[C@H](CCCNC(=N)N)NC1=O [Compound 12, cyclo(RGDFV)] | > 100 |  |  |  |  | > 100 |  |  |  | 
CC(C)[C@@H]1NC(=O)[C@H](Cc2ccccc2)NC(=O)[C@@H](CC(=O)O)NC(=O)CNC(=O)[C@H](CCCNC(=N)N)NC1=S [Compound 9a] | 0.011 ± 0.009 |  |  |  |  | 0.04 ± 0.028 |  |  |  | 
CC(C)[C@@H]1NC(=S)[C@H](Cc2ccccc2)NC(=O)[C@H](CC(=O)O)NC(=O)CNC(=O)[C@H](CCCNC(=N)N)NC1=O [Compound 9b] | 0.001 ± 0.0001 | 0.002 ± 0.0004 | 0.0016 ± 0.0003 | 0.0002 ± 0.0001 | 0.0002 | 0.0016 ± 0.0006 | > 100 | > 10^3 fold | ~10^5 fold | 1/4
CC(C)[C@@H]1NC(=O)[C@@H](Cc2ccccc2)NC(=S)[C@H](CC(=O)O)NC(=O)CNC(=O)[C@H](CCCNC(=N)N)NC1=O [Compound 11] | 0.0042 ± 0.004 | 0.062 ± 0.045 | 0.0013 ± 0.001 | 0.072 ± 0.063 |  | 0.096 ± 0.077 | > 100 |  |  | 1/4
CC(C)[C@@H]1NC(=O)[C@H](Cc2ccccc2)NC(=S)[C@H](CC(=O)O)NC(=O)CNC(=O)[C@@H](CCCNC(=N)N)NC1=O [Compound 9c] | > 100 | 0.461 ± 0.246 | > 10 | > 100 |  | > 100 | > 100 |  |  | 
